This passage reports IC50 results from patent US9657351B2, “MRNA-based gene expression for personalizing patient cancer therapy with an MDM2 antagonist” (Hoffmann-La Roche Inc., priority 2013, dated 2017).

SMILES strings stand for the structures.

Common to all, as to experiment: COMPOUND A In Vitro Assay
Common to all, as to type: cell-based

The test system of one assay is TF-1a. The conditions noted are these: Homo sapiens, Bone marrow, TP53 Mutant. A digest of the protocol: (§1)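 For this panel of human cancer lines, COMPOUND A was applied in high-throughput screening assays and responses were converted to IC50. A line was considered sensitive when its IC50 was no more than 1, and resistant when it reached 10 or above.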
The test system of a further assay is U-2197. The conditions noted are these: Homo sapiens, Skin, hypodermis, subcutaneous, TP53 Mutant. The gist of the method: as §1
The test system of a further assay is NCI-H1650. The conditions noted are these: Homo sapiens, Lung, TP53 Mutant. The gist of the method:
as §1

Another assay deals with SUM52PE. As to conditions: Homo sapiens, Breast, TP53 Wild type. The gist of the method:
as §1

A further assay deals with MDA-MB-134-VI. As to conditions: Homo sapiens, Breast, mammary gland, TP53 Mutant. A digest of the protocol: as §1
In the next assay the test system is LS1034. As to conditions: Homo sapiens, LS-1034, Intestine, large, caecum, TP53 Mutant. The gist of the method:
as §1

A further assay relates to T-47D. As to conditions: Homo sapiens, T47D, Breast, mammary gland, TP53 Mutant. A digest of the protocol:
as §1

The subject of a further assay is KMS-11. As to conditions: Homo sapiens, Lymphocyte, TP53 Wild type. The gist of the method: as §1
The test system of the next assay is Hep3B. As to conditions: Homo sapiens, Liver, TP53 Mutant. A digest of the protocol:
as §1

For the next assay, the system named is NCI-H28. As to conditions: Homo sapiens. The gist of the method: as §1
The next assay relates to NCI-H146. As to conditions: Homo sapiens, Lung, TP53 Mutant. The gist of the method: as §1
A further assay relates to SK-N-F1. The conditions noted are these: Homo sapiens, Brain, TP53 Mutant. The gist of the method:
as §1

For another assay, the system named is HCC1806. As to conditions: Homo sapiens, Breast, mammary gland, TP53 Mutant. The gist of the method: as §1
The test system of another assay is THP-1. As to conditions: Homo sapiens, Blood, TP53 Mutant. A digest of the protocol:
as §1

The next assay has as its system NCI-H1299. The conditions noted are these: Homo sapiens, Lung, TP53 Mutant. The gist of the method:
as §1

A further assay has as its system SU•86•86. As to conditions: Homo sapiens, SU.86.86, Pancreas, TP53 Mutant. A digest of the protocol:
as §1

Another assay has as its system NCI-H508. As to conditions: Homo sapiens, Intestine, large, caecum, TP53 Mutant. The gist of the method:
as §1

The subject of the next assay is NCI-H748. The conditions noted are these: Homo sapiens, Lung, TP53 Mutant. The gist of the method:
as §1

The subject of the next assay is NCI-H209. The conditions noted are these: Homo sapiens, Lung, TP53 Mutant. A digest of the protocol:
as §1

The subject of a further assay is SW620. The conditions noted are these: Homo sapiens, SW-620, Intestine, large, colon, TP53 Mutant. The gist of the method:
as §1

For a further assay, the system named is U-87 MG. As to conditions: Homo sapiens. A digest of the protocol: as §1
The subject of the next assay is RT4. As to conditions: Homo sapiens, RT-4, Urinary, bladder, TP53 Wild type. The gist of the method:
as §1

As for `CCOc1cc(C(C)(C)C)ccc1C1=N[C@@](C)(c2ccc(Cl)cc2)[C@@](C)(c2ccc(Cl)cc2)N1C(=O)N1CCN(CCCS(C)(=O)=O)CC1` [COMPOUND A], the IC50 worked out at 10 µM with TF-1a; 22 µM in the assay with U-2197; 10 µM in the assay with NCI-H1650; 8.7 µM in the assay with SUM52PE; 38 µM in the assay with MDA-MB-134-VI; 5.7 µM in the assay with LS1034. Further, the IC50 was determined as 9.9 µM in the assay on T-47D; 12 µM in the assay on KMS-11; 6.7 µM in the assay on Hep3B; 0.46 µM with NCI-H28 (NCI-H28, NCI-H28, Mesothelioma, TP53 Wild type); 0.5 µM in the assay on NCI-H28 (NCI-H28, NCI-H28 cells); 8.3 µM with NCI-H146. The IC50 was determined as 17 µM in the assay on SK-N-F1; 11 µM in the assay on HCC1806; 9.7 µM in the assay on THP-1; 15 µM with NCI-H1299; 6.7 µM in the assay with SU•86•86; 1.2 µM in the assay with NCI-H508. The IC50 in the assay with NCI-H748 is 16 µM; in the assay on NCI-H209, 11 µM; with SW620 it was 9.8 µM; with U-87 MG (Brain, TP53 Wild type), 0.18 µM; in the assay with U-87 MG (U-87 MG cells), 0.2 µM; with RT4, 2.4 µM.

What is called IC50 is the point on the concentration scale where inhibition reaches its midpoint. A high value points to weaker potency.
